{"source": "paper PMC10179080", "about": "“In Vivo and In Vitro Characterization of Close Analogs of Compound KA-11, a New Antiseizure Drug Candidate” (International Journal of Molecular Sciences, 2023)", "key": {"Chimney test": {"test": "Chimney test", "conditions": "male, albino Swiss, mouse, in vivo, ip, mice", "protocol": "The experiments were conducted on adult male albino Swiss mice weighing 22–26 g. The animals were kept in colony cages under standardized laboratory conditions: natural light–dark cycle 12/12 h, temperature 20–24 °C, air humidity 45–65% and free access to tap water and food (chow pellets). After 7 days of adaptation to laboratory conditions, the animals were randomly assigned to experimental groups consisting of 8 mice. The experimental procedures described herein were approved by the Local Ethics Committee in Lublin, Poland (approval numbers: 71/2020 and 13/2021), and were conducted in accordance with EU Directive 2010/63/EU for animal experiments. All efforts were made to minimize animal suffering and to use only the number of animals necessary to produce reliable scientific data according to the 3Rs rule.\nThe chimney test of Boissier et al. was used to quantify the acute adverse-effect potential of KA-228 and KA-232 on motor performance in mice. […]\nThe ED50 or TD50 values for tested substances in the acute animal models of seizures were calculated using the computer log-probit analysis. Subsequently, the ED50 and TD50 values (±SEM) were statistically analyzed using one-way analysis of variance (ANOVA) followed by the post hoc Dunnett’s test for multiple comparisons. […] The results obtained from the acute ivPTZ test and grip strength test were evaluated by a Student’s t test. […]"}, "[1]": {"system": "neuromuscular strength in mice", "test": "Grip strength test", "format": "in vivo", "protocol": "The experiments were conducted on adult male albino Swiss mice weighing 22–26 g. The animals were kept in colony cages under standardized laboratory conditions: natural light–dark cycle 12/12 h, temperature 20–24 °C, air humidity 45–65% and free access to tap water and food (chow pellets). After 7 days of adaptation to laboratory conditions, the animals were randomly assigned to experimental groups consisting of 8 mice. The experimental procedures described herein were approved by the Local Ethics Committee in Lublin, Poland (approval numbers: 71/2020 and 13/2021), and were conducted in accordance with EU Directive 2010/63/EU for animal experiments. All efforts were made to minimize animal suffering and to use only the number of animals necessary to produce reliable scientific data according to the 3Rs rule. The grip strength test was carried out according to the methodology described by Socała et al.. Neuromuscular strength was measured just before the ivPTZ seizure threshold test to limit the number of animals used. The ED50 or TD50 values for tested substances in the acute animal models of seizures were calculated using the computer log-probit analysis. Subsequently, the ED50 and TD50 values (±SEM) were statistically analyzed using one-way analysis of variance (ANOVA) followed by the post hoc Dunnett’s test for multiple comparisons. Differences among values were considered statistically significant if p < 0.05. GraphPad Prism version 8 for Windows (GraphPad Software, San Diego, CA, USA) was used as a statistical software program. The results obtained from the acute ivPTZ test and grip strength test were evaluated by a Student’s t test. Fisher’s exact probability test was used to analyze protection from tonic forelimb and hindlimb extension in the ivPTZ test. Figure 8 Effects of KA-228 and KA-232 on neuromuscular strength in mice. KA-228 and KA-232 were administered i.p., 30 min before the test. Control animals received vehicle. […] The statistical significance was evaluated using the Student’s t test: * p < 0.05 vs. the vehicle-treated group (GraphPad Prism 8)."}, "hERG potassium channel": {"molecular_target": "T1, hERG potassium channel (Homo sapiens, UniProt Q12809)", "T1 construct": "host or cells: HEK-293 cells", "T1 sequence (Q12809 whole entry)": "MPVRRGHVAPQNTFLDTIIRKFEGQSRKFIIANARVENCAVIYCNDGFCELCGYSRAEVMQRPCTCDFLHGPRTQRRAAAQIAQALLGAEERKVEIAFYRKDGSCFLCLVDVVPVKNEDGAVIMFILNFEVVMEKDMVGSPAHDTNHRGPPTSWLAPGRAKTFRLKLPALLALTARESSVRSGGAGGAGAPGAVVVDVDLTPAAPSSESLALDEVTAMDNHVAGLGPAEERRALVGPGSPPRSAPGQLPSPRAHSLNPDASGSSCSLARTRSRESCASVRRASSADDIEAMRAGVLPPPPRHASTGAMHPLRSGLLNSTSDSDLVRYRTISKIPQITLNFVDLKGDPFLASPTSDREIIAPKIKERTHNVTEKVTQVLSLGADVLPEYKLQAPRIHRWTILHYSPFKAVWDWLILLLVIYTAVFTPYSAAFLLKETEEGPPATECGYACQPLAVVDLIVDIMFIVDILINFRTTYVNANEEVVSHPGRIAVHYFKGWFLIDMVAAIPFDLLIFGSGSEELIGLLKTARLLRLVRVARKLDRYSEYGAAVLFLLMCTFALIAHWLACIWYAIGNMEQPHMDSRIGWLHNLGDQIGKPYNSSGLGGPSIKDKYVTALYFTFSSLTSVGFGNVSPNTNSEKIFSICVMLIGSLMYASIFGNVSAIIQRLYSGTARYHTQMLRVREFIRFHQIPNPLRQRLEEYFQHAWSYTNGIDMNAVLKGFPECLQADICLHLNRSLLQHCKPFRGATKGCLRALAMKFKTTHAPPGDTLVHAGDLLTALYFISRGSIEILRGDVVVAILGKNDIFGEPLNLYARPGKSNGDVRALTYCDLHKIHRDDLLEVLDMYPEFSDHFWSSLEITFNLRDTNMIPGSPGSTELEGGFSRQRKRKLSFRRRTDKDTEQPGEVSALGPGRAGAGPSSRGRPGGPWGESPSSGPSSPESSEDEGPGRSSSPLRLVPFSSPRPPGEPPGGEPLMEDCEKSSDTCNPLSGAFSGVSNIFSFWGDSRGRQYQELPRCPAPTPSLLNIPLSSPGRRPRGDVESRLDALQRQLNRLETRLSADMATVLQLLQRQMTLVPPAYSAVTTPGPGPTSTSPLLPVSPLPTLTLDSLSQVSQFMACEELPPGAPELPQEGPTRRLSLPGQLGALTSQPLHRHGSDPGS", "test": "Radioligand binding, potassium channel (hERG)", "conditions": "human, human recombinant HEK-293 cells expressing hERG, KA-11 value not published before, read-out: % Inhibition of Control Specific Binding", "protocol": "Dysfunction of both sodium and calcium ion channels is known to be one of the crucial reasons behind the pathogenesis of seizures. Consequently, these ion channels are molecular targets for several clinically important ASDs such as lacosamide, lamotrigine, carbamazepine, oxcarbazepine and compounds currently under preclinical and clinical studies. Thus, for KA-228 and KA-232, we tested herein their binding profile toward the aforementioned ion channels at concentrations of 10 and 100 µM (Table 3). […] Apart from in vitro studies focused on explaining the mechanism of action, KA-232 was additionally tested for its interaction with the potassium channel (hERG) which is recognized as one of the most important ‘off-targets’ responsible for harmful arrhythmogenic activity. Thus, the interaction of potential drug candidates with hERG must be excluded at an early stage of development.\n(§1) Binding studies were carried out commercially in Eurofins Laboratories (Poitiers, France or New Taipei City, Taiwan)."}, "[2]": {"molecular_target": "T2, TRPV1 (VR1) (antagonist effect) (Homo sapiens, UniProt Q8NER1)", "T2 construct": "host or cells: CHO cells", "T2 sequence (Q8NER1 whole entry)": "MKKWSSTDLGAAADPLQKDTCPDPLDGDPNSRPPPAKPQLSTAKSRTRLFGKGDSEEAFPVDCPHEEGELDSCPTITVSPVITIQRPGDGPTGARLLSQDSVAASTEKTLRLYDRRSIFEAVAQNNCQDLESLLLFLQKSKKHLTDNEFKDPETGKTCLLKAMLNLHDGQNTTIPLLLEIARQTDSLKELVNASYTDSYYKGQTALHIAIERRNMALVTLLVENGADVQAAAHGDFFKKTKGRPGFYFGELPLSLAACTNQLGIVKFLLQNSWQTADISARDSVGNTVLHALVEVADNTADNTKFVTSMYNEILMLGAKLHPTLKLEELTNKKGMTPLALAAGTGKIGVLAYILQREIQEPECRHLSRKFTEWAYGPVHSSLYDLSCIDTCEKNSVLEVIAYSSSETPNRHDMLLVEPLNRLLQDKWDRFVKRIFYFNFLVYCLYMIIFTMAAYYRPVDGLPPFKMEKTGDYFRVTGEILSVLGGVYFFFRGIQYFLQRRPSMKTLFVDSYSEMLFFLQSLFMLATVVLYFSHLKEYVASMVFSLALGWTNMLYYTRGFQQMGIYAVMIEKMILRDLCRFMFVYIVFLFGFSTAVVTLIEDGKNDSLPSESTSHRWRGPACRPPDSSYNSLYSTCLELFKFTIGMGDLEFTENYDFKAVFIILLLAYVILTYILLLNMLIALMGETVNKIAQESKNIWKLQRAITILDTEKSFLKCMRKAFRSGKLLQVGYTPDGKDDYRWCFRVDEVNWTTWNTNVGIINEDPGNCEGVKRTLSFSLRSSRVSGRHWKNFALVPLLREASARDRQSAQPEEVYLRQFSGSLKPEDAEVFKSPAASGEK", "test": "TRPV1 antagonist functional assay (intracellular Ca2+, CHO cells)", "format": "cell-based", "conditions": "10 µM", "protocol": "as §1"}, "CYP2D6": {"molecular_target": "T3, CYP2D6 (Homo sapiens, UniProt P10635)", "T3 construct": "purchased Promega, Madison, WI, USA", "T3 sequence (P10635 whole entry)": "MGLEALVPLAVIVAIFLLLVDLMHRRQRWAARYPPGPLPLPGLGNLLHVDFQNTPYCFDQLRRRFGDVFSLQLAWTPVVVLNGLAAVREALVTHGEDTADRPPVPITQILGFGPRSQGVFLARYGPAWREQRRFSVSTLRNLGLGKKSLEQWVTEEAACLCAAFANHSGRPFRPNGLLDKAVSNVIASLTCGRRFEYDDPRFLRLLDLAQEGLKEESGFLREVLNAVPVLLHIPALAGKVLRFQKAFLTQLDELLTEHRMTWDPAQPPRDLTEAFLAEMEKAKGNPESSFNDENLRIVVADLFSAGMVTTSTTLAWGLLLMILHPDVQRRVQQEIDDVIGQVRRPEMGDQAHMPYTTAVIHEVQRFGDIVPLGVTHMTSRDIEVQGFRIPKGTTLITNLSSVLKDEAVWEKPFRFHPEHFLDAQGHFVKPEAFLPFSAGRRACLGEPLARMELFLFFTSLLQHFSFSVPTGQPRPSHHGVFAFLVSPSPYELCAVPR", "test": "CYP2D6 P450-Glo assay", "format": "in vitro ADME", "from_the_text": "(§2) The assays and protocols used for evaluating the KA-232 ADME-Tox parameters were similar to those described previously for compound KA-11 [6].\n(§3) Figure 9 The effect of KA-232 and the reference drug ketoconazole (KE) on CYP3A4 activity (A). The effect of KA-232 and the reference drug quinidine (QD) on CYP2D6 activity (B). The effect of KA-232 and the reference cytostatic drug doxorubicin (DX) on the HepG2 cell line (C) and the SH-SY5Y cell line (D) viability. Statistical significance (* p < 0.05, **** p < 0.0001) was analyzed by Graph Pad Prism 8 software using one-way ANOVA and Bonferroni’s Multiple Comparison Post Test."}, "hepatoma HepG2": {"system": "hepatoma HepG2", "test": "Hepatotoxicity, HepG2 cell viability", "format": "cell-based, human", "from_the_text": "as §2, §3"}, "[3]": {"test": "Stability in PBS buffer during PAMPA incubation", "format": "physicochemical", "conditions": "5 h incubation in PAMPA plate, PBS pH 7.4, RT"}, "in vitro": {"test": "in vitro", "conditions": "PAMPA", "description": "Pre-coated PAMPA Plate System Gentest™ was purchased from Corning (Tewksbury, MA, USA). […] The luminescent signal and the absorbances were measured by using a microplate reader EnSpire PerkinElmer (Waltham, MA, USA). The LC/MS/MS analyses used in PAMPA and metabolic stability assays were obtained on Waters ACQUITY™ TQD system (Waters, Milford, CT, USA)."}}}
{"smiles": "CC(C(=O)N1CCN(c2cccc(C(F)(F)F)c2)CC1)N1C(=O)CC(N(C)C)C1=O.Cl", "note": "(stereo not drawn) [KA-232, 3-(Dimethylamino)-1-(1-oxo-1-(4-(3-(trifluoromethyl)phenyl)piperazin-1-yl)propan-2-yl)pyrrolidine-2,5-dione hydrochloride]", "values": [{"measurement": "TD50 at 30 min", "setting": "Chimney test", "result": "163 ± 31.2", "unit": "mg/kg"}, {"measurement": "effect on neuromuscular strength (grip strength)", "setting": "[1]; 50 mg/kg i.p., 30 min before test", "result": "did not produce any significant effects"}, {"measurement": "effect on neuromuscular strength (grip strength)", "setting": "[1]; 100 mg/kg i.p., p < 0.05", "result": "slightly decreased"}, {"measurement": "inhibition at 60 min, 100 µM", "setting": "hERG potassium channel", "result": 18.3, "unit": "%"}, {"measurement": "% Inhibition of control specific binding (functional, antagonist effect)", "setting": "[2]", "result": "did not inhibit"}, {"measurement": "inhibition at 10 µM", "setting": "[2]; CHO, read-out: % Inhibition of control specific binding (functional, antagonist effect)", "result": 10.5, "unit": "%"}, {"measurement": "CYP2D6 activity (% of control ± SD)", "setting": "CYP2D6; 10 µM", "result": "100.96 ± 2.57 % of control"}, {"measurement": "effect on CYP2D6 activity", "setting": "CYP2D6; at 0.1 and 1 µM", "result": "slight induction"}, {"measurement": "HepG2 viability (% of control ± SD)", "setting": "hepatoma HepG2; 10 µM", "result": "89.44 ± 10.22 % of control"}, {"measurement": "HepG2 cell viability", "setting": "hepatoma HepG2; 100 µM", "result": "approximately 78 % of control"}, {"measurement": "stability in physiological buffer", "setting": "[3]", "result": "some products of KA-232 degradation at the pyrrolidine-2,5-dione moiety were observed"}, {"measurement": "Papp at 5 h", "setting": "in vitro", "result": "10.2 ± 1.65", "unit": "×10⁻⁶ cm/s"}]}
